Reference: patent publication US20060235076A1, “Medicinal composition for treating infection with drug-resistant staphylococcus aureus” (priority 2003, published 2006)
Values after ≈ are worked out from the molar mass of the structure shown. Where two headings read alike, the source gives them in different places.

Assays:
[1] = system: MRSA COL and MRSA Strain No. 5; test: Potentiating effect of various gallates for antibacterial activity of oxacillin (MIC by broth microdilution method and FIC); format: cell-based, Staphylococcus aureus; settings: for antibacterial activity when used alone: COL Strain and Strain No. 5; for FIC value: combination with oxacillin
Procedure: According to the broth microdilution method defined by Japan Society of Chemotherapy, MIC was determined. CAMHA was prepared by adding 50 mg/l of Ca-ion, 25 mg/l of Mg-ion, and 2% of NaCl to MHB (Mueller-Hinton Broth), and it was used as a medium for use in the measurement of sensitivity. In 96-well microplates 100 μl of the medium for use in the measurement of sensitivity containing drugs was dispensed. The bacterial liquid was incubated at 37° C. overnight, diluted with saline and added to the plate so that the final concentration of the bacteria was 5×10^5 CFU/well. […] FIC (fractional inhibitory concentration) was calculated from the result and the potency of the effect of the combination use was evaluated.

MRSA and MSSA = test: Antibacterial activity of gallic acid, various gallates and multivalent phenol derivatives alone (agar plate dilution method, MIC); format: cell-based, Staphylococcus aureus; settings: Staphylococcus aureus
Procedure: According to the agar plate dilution method defined by Japan Society of Chemotherapy, MIC (Minimum inhibitory concentration) was determined. CAMHA was prepared by adding 50 mg/l of Ca-ion, 25 mg/l of Mg-ion, and 2% of NaCl to Mueller-Hinton II Agar (MHA), and it was used as a medium for use in the measurement of sensitivity. The bacterial liquid was incubated at 37° C. overnight and diluted to 10^6 CFU/ml with saline.
MIC for gallic acid, various gallates and multivalent phenol derivatives alone with MRSA and MSSA were determined as described in experiment 2.

[2] = MSSA #1003, read-out: MIC alone
[3] = MSSA #1010, read-out: MIC alone
[4] = MSSA #1020, read-out: MIC alone
[5] = MSSA #1023, read-out: MIC alone
[6] = MSSA #1029, read-out: MIC alone
[7] = MSSA #1032, read-out: MIC alone

## CCCCCCCCOC(=O)c1cc(O)c(O)c(O)c1 [Octyl gallate, n-octyl gallate]
[1]
  antibacterial activity when used alone: most potent
[1]; MRSA COL
  FIC value: 0.252
[1]; MRSA Strain No. 5
  FIC value: 0.75
MRSA and MSSA
  MIC50: 31.3 µg/mL (≈ 111 µM)
MRSA and MSSA; ATCC 6538 / MRSA / MSSA, read-out: MIC alone
  MIC: 31.3 µg/mL (≈ 111 µM)
MRSA and MSSA; COL, read-out: MIC alone
  MIC: 31.3 µg/mL (≈ 111 µM)
MRSA and MSSA; MRSA #1, read-out: MIC alone
  MIC: 31.3 µg/mL (≈ 111 µM)
MRSA and MSSA; MRSA #2, read-out: MIC alone
  MIC: 31.3 µg/mL (≈ 111 µM)
MRSA and MSSA; MRSA #3, read-out: MIC alone
  MIC: 31.3 µg/mL (≈ 111 µM)
MRSA and MSSA; MRSA #4, read-out: MIC alone
  MIC: 31.3 µg/mL (≈ 111 µM)
MRSA and MSSA; MRSA #5, read-out: MIC alone
  MIC: 31.3 µg/mL (≈ 111 µM)
MRSA and MSSA; MRSA #6, read-out: MIC alone
  MIC: 31.3 µg/mL (≈ 111 µM)
MRSA and MSSA; MRSA #7, read-out: MIC alone
  MIC: 31.3 µg/mL (≈ 111 µM)
MRSA and MSSA; MRSA #8, read-out: MIC alone
  MIC: 31.3 µg/mL (≈ 111 µM)
MRSA and MSSA; MRSA #9, read-out: MIC alone
  MIC: 31.3 µg/mL (≈ 111 µM)
MRSA and MSSA; MRSA #10, read-out: MIC alone
  MIC: 15.6 µg/mL (≈ 55.3 µM)
MRSA and MSSA; MRSA #12, read-out: MIC alone
  MIC: 31.3 µg/mL (≈ 111 µM)
MRSA and MSSA; MRSA #16, read-out: MIC alone
  MIC: 31.3 µg/mL (≈ 111 µM)
MRSA and MSSA; MRSA #17, read-out: MIC alone
  MIC: 31.3 µg/mL (≈ 111 µM)
MRSA and MSSA; MRSA #18, read-out: MIC alone
  MIC: 31.3 µg/mL (≈ 111 µM)
MRSA and MSSA; MRSA #20, read-out: MIC alone
  MIC: 31.3 µg/mL (≈ 111 µM)
MRSA and MSSA; MRSA #21, read-out: MIC alone
  MIC: 31.3 µg/mL (≈ 111 µM)
MRSA and MSSA; MRSA #22, read-out: MIC alone
  MIC: 31.3 µg/mL (≈ 111 µM)
MRSA and MSSA; MRSA #24, read-out: MIC alone
  MIC: 31.3 µg/mL (≈ 111 µM)
MRSA and MSSA; [2]
  MIC: 31.3 µg/mL (≈ 111 µM)
MRSA and MSSA; [3]
  MIC: 31.3 µg/mL (≈ 111 µM)
MRSA and MSSA; [4]
  MIC: 31.3 µg/mL (≈ 111 µM)
MRSA and MSSA; [5]
  MIC: 31.3 µg/mL (≈ 111 µM)
MRSA and MSSA; [6]
  MIC: 31.3 µg/mL (≈ 111 µM)
MRSA and MSSA; [7]
  MIC: 31.3 µg/mL (≈ 111 µM)

## CCCOC(=O)c1cc(O)c(O)c(O)c1 [Propyl gallate, n-propyl gallate]
[1]; MRSA COL
  FIC value: 0.258
[1]; MRSA Strain No. 5
  FIC value: 0.258
MRSA and MSSA; ATCC 6538 / MRSA / MSSA, ATCC6538, read-out: MIC alone
  MIC: 125 µg/mL (≈ 589 µM)
MRSA and MSSA; COL, read-out: MIC alone
  MIC: 125 µg/mL (≈ 589 µM)
MRSA and MSSA; MRSA #1, read-out: MIC alone
  MIC: 125 µg/mL (≈ 589 µM)
MRSA and MSSA; MRSA #2, read-out: MIC alone
  MIC: 62.5 µg/mL (≈ 295 µM)
MRSA and MSSA; MRSA #3, read-out: MIC alone
  MIC: 125 µg/mL (≈ 589 µM)
MRSA and MSSA; MRSA #4, read-out: MIC alone
  MIC: 125 µg/mL (≈ 589 µM)
MRSA and MSSA; MRSA #5, read-out: MIC alone
  MIC: 125 µg/mL (≈ 589 µM)
MRSA and MSSA; MRSA #6, read-out: MIC alone
  MIC: 62.5 µg/mL (≈ 295 µM)
MRSA and MSSA; MRSA #7, read-out: MIC alone
  MIC: 125 µg/mL (≈ 589 µM)
MRSA and MSSA; MRSA #8, read-out: MIC alone
  MIC: 125 µg/mL (≈ 589 µM)
MRSA and MSSA; MRSA #9, read-out: MIC alone
  MIC: 62.5 µg/mL (≈ 295 µM)
MRSA and MSSA; MRSA #10, read-out: MIC alone
  MIC: 62.5 µg/mL (≈ 295 µM)
MRSA and MSSA; MRSA #12, read-out: MIC alone
  MIC: 125 µg/mL (≈ 589 µM)
MRSA and MSSA; MRSA #16, read-out: MIC alone
  MIC: 125 µg/mL (≈ 589 µM)
MRSA and MSSA; MRSA #17, read-out: MIC alone
  MIC: 62.5 µg/mL (≈ 295 µM)
MRSA and MSSA; MRSA #18, read-out: MIC alone
  MIC: 62.5 µg/mL (≈ 295 µM)
MRSA and MSSA; MRSA #20, read-out: MIC alone
  MIC: 125 µg/mL (≈ 589 µM)
MRSA and MSSA; MRSA #21, read-out: MIC alone
  MIC: 125 µg/mL (≈ 589 µM)
MRSA and MSSA; MRSA #22, read-out: MIC alone
  MIC: 125 µg/mL (≈ 589 µM)
MRSA and MSSA; MRSA #24, read-out: MIC alone
  MIC: 125 µg/mL (≈ 589 µM)
MRSA and MSSA; [2]
  MIC: 125 µg/mL (≈ 589 µM)
MRSA and MSSA; [3]
  MIC: 125 µg/mL (≈ 589 µM)
MRSA and MSSA; [4]
  MIC: 125 µg/mL (≈ 589 µM)
MRSA and MSSA; [5]
  MIC: 62.5 µg/mL (≈ 295 µM)
MRSA and MSSA; [6]
  MIC: 62.5 µg/mL (≈ 295 µM)
MRSA and MSSA; [7]
  MIC: 125 µg/mL (≈ 589 µM)
MRSA and MSSA; compound alone, over all strains of Table 3-1, read-out: MIC50
  MIC50: 125 µg/mL (≈ 589 µM)

## CCCCCCCCCCCOC(=O)c1cc(O)c(O)c(O)c1 [Undecyl gallate, n-undecyl gallate]
[1]
  antibacterial activity when used alone: most potent
[1]; MRSA COL
  FIC value: 0.313
[1]; MRSA Strain No. 5
  FIC value: 0.251
MRSA and MSSA
  MIC50: 31.3 µg/mL (≈ 96.5 µM)
MRSA and MSSA; ATCC 6538 / MRSA / MSSA
  MIC: 31.3 µg/mL (≈ 96.5 µM)
MRSA and MSSA; COL, compound alone, read-out: MIC
  MIC: 31.3 µg/mL (≈ 96.5 µM)
MRSA and MSSA; MRSA #1, compound alone, read-out: MIC
  MIC: 31.3 µg/mL (≈ 96.5 µM)
MRSA and MSSA; MRSA #2, compound alone, read-out: MIC
  MIC: 31.3 µg/mL (≈ 96.5 µM)
MRSA and MSSA; MRSA #3, compound alone, read-out: MIC
  MIC: 31.3 µg/mL (≈ 96.5 µM)
MRSA and MSSA; MRSA #4, compound alone, read-out: MIC
  MIC: 31.3 µg/mL (≈ 96.5 µM)
MRSA and MSSA; MRSA #5, compound alone, read-out: MIC
  MIC: 31.3 µg/mL (≈ 96.5 µM)
MRSA and MSSA; MRSA #6, compound alone, read-out: MIC
  MIC: 31.3 µg/mL (≈ 96.5 µM)
MRSA and MSSA; MRSA #7, compound alone, read-out: MIC
  MIC: 31.3 µg/mL (≈ 96.5 µM)
MRSA and MSSA; MRSA #8, compound alone, read-out: MIC
  MIC: 31.3 µg/mL (≈ 96.5 µM)
MRSA and MSSA; MRSA #9, compound alone, read-out: MIC
  MIC: 31.3 µg/mL (≈ 96.5 µM)
MRSA and MSSA; MRSA #10, compound alone, read-out: MIC
  MIC: 31.3 µg/mL (≈ 96.5 µM)
MRSA and MSSA; MRSA #12, compound alone, read-out: MIC
  MIC: 31.3 µg/mL (≈ 96.5 µM)
MRSA and MSSA; MRSA #16, compound alone, read-out: MIC
  MIC: 31.3 µg/mL (≈ 96.5 µM)
MRSA and MSSA; MRSA #17, compound alone, read-out: MIC
  MIC: 31.3 µg/mL (≈ 96.5 µM)
MRSA and MSSA; MRSA #18, compound alone, read-out: MIC
  MIC: 31.3 µg/mL (≈ 96.5 µM)
MRSA and MSSA; MRSA #20, compound alone, read-out: MIC
  MIC: 31.3 µg/mL (≈ 96.5 µM)
MRSA and MSSA; MRSA #21, compound alone, read-out: MIC
  MIC: 31.3 µg/mL (≈ 96.5 µM)
MRSA and MSSA; MRSA #22, compound alone, read-out: MIC
  MIC: 31.3 µg/mL (≈ 96.5 µM)
MRSA and MSSA; MRSA #24, compound alone, read-out: MIC
  MIC: 31.3 µg/mL (≈ 96.5 µM)
MRSA and MSSA; MSSA #1003, compound alone, read-out: MIC
  MIC: 31.3 µg/mL (≈ 96.5 µM)
MRSA and MSSA; MSSA #1010, compound alone, read-out: MIC
  MIC: 31.3 µg/mL (≈ 96.5 µM)
MRSA and MSSA; MSSA #1020, compound alone, read-out: MIC
  MIC: 31.3 µg/mL (≈ 96.5 µM)
MRSA and MSSA; MSSA #1023, compound alone, read-out: MIC
  MIC: 31.3 µg/mL (≈ 96.5 µM)
MRSA and MSSA; MSSA #1029, compound alone, read-out: MIC
  MIC: 31.3 µg/mL (≈ 96.5 µM)
MRSA and MSSA; MSSA #1032, compound alone, read-out: MIC
  MIC: 31.3 µg/mL (≈ 96.5 µM)
